Source: patent US20250281483A1, “TRANSCRIPTION FACTOR EB ACTIVATORS AND USES THEREOF” (Astellas Engineered Small Molecules US, Incorporated, priority 2022, published 2025)

Tests used:
[1] = In Vitro Liver Microsomes Metabolic Stability Assay, human; format: in vitro ADME; conditions: human liver microsomes 0.5 mg/mL, 1 μM compound, NADPH, 0 and 30 min; scale-up CLint; read-out: CLint, Human LM
Description: (§1) In Vitro Liver Microsomes Metabolic Stability Assay of Different Species
(§2) 1. The liver microsomes were stored at −80° C. prior to use.
(§3) 2. The master solution was prepared according to Table 3.
(§4) 3. 40 μL of 10 mM NADPH solution was added to each well. The final concentrations of NADPH was 1 mM. The mixture was pre-warmed at 37° C. for 5 minutes. The negative control samples were prepared by replacing NADPH solutions with 40 μL of ultra-pure H2O. The negative control was used to exclude the misleading factor that resulted from instability of chemical itself. Samples with NADPH were prepared in duplicate. Negative controls were prepared in singlet.
(§5) 4. The reaction was started with the addition of 2 μL of 200 μM control compound or test compound solutions. Verapamil was used as positive control in this study. The final concentration of test compound or control compound was 1 μM.
(§6) 5. Aliquots of 50 μL were taken from the reaction solution at 0 and 30 minutes. The reaction was stopped by the addition of 4 volumes of cold acetonitrile with Internal Standard (100 nM alprazolam, 200 nM imipramine, 200 nM labetalol and 2 μM ketoprofen). Samples were centrifuged at 3, 220 g for 40 minutes. Aliquot of 90 μL of the supernatant was mixed with 90 μL of ultra-pure H2O and then used for LC-MS/MS analysis.
(§7) Peak areas were determined from extracted ion chromatograms. The slope value, k, was determined by linear regression of the natural logarithm of the remaining percentage of the parent drug vs. incubation time curve.
(§8) The in vitro half-life (in vitro t1/2) was determined from the slope value:
(§9) Conversion of the in vitro t1/2 (min) into the in vitro intrinsic clearance (in vitro CLint, in μL/min/mg protein) was done using the following equation (mean of duplicate determinations): […]
(§10) Conversion of the in vitro t1/2 (min) into the scale-up unbound intrinsic clearance (Scale-up CLint, in mL/min/kg) was done using the following equation (mean of duplicate determinations): […]

[2] = In Vitro Liver Microsomes Metabolic Stability Assay, mouse; format: in vitro ADME; conditions: mouse liver microsomes 0.5 mg/mL, 1 μM compound, NADPH, 0 and 30 min; scale-up CLint; read-out: CLint, Mouse LM
Description: as §1, §2, §3, §4, §5, §6, §7, §8, §9, §10

[3] = molecular target: T1, TFEB (Homo sapiens, UniProt P19484); assay: Tfeb-Translocation Assay HEK-293T-oEX-Tfeb-GFP Cell Line; format: cell-based; conditions: HEK-293T-oEX-TFEB-GFP cells; translocation positive cells ratio; read-out: TFEB Translocation EC50
T1 sequence (P19484 1-476): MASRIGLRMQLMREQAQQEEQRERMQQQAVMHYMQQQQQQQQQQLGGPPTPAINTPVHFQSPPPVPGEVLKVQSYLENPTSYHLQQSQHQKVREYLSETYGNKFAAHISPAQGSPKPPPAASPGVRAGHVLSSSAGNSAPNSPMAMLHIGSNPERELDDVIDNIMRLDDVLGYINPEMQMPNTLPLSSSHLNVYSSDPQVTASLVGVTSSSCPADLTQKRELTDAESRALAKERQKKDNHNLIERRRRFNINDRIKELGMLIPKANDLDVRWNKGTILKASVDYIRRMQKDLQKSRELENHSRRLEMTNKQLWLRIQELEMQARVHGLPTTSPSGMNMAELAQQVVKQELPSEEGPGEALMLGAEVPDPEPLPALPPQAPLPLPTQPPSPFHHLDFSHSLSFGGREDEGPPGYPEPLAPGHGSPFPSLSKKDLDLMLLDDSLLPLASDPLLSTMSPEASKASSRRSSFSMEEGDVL
Method in brief: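 HEK-293T cells overexpressing Tfeb-GFP were treated for 6 or 18 h at 37 °C with 10-point 3- or 2-fold dilutions from 50 µM (Torin 1 reference from 300 nM), then PFA-fixed and Hoechst-stained. Cells with nuclear/perinuclear EGFP ratio 1.2 among EGFP-positive cells were scored as translocation-positive; DMSO set to ~15% for normalization.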

[4] = In Vitro Liver Microsomes Metabolic Stability Assay, rat; format: in vitro ADME; conditions: rat liver microsomes 0.5 mg/mL, 1 μM compound, NADPH, 0 and 30 min; scale-up CLint; read-out: CLint, Rat LM
Description: as §1, §2, §3, §4, §5, §6, §7, §8, §9, §10

Row | SMILES | CLint scaled at 1 μM [1] | CLint scaled at 1 μM [2] | EC50 [3] | CLint scaled at 1 μM [4]
1 | Cc1cccc(CNC(=O)c2cc3c(=O)n(Cc4ccccc4)ccc3nc2C)n1 [Example 6, 6-benzyl-2-methyl-N-((6-methylpyridin-2-yl)methyl)-5-oxo-5,6-dihydro-1,6-naphthyridine-3-carboxamide] | 16 mL/min/kg | 414 mL/min/kg | 0.1 to 1 µM | 217 mL/min/kg
2 | Cc1cccc(CNC(=O)c2cc3c(=O)n(Cc4ccccc4)ccc3nc2C)c1 [Example 5, 6-benzyl-2-methyl-N-(3-methylbenzyl)-5-oxo-5,6-dihydro-1,6-naphthyridine-3-carboxamide] | 171 mL/min/kg | 1800 mL/min/kg | 0.1 to 1 µM | 1040 mL/min/kg
3 | Cc1ccc(CNC(=O)c2cc3c(=O)n(Cc4ccccc4)ccc3nc2C)o1 [Example 1, 6-benzyl-2-methyl-N-((5-methylfuran-2-yl)methyl)-5-oxo-5,6-dihydro-1,6-naphthyridine-3-carboxamide] | 57 mL/min/kg | 760 mL/min/kg | < 0.1 µM | 319 mL/min/kg

The next lines start with the values.

Row | CLint scaled at 1 μM [1] | CLint scaled at 1 μM [2] | EC50 [3] | CLint scaled at 1 μM [4] | SMILES
4 | 1 mL/min/kg | 132 mL/min/kg | < 0.1 µM | 55 mL/min/kg | Cc1nc2ccn(Cc3ccc(Cl)cc3)c(=O)c2cc1C(=O)NCc1ccccn1 [Example 31, 6-(4-chlorobenzyl)-2-methyl-5-oxo-N-(pyridin-2-ylmethyl)-5,6-dihydro-1,6-naphthyridine-3-carboxamide]
5 | 2 mL/min/kg | 91 mL/min/kg | 0.1 to 1 µM | 28 mL/min/kg | Cc1nc2ccn(Cc3ccccc3)c(=O)c2cc1C(=O)NCc1ccccn1 [Example 7, 6-benzyl-2-methyl-5-oxo-N-(pyridin-2-ylmethyl)-5,6-dihydro-1,6-naphthyridine-3-carboxamide]
6 | 15 mL/min/kg | 470 mL/min/kg | 0.1 to 1 µM | 163 mL/min/kg | Cc1nc2ccn(Cc3ccccc3)c(=O)c2cc1C(=O)NCc1ccccc1 [Example 17, N,6-dibenzyl-2-methyl-5-oxo-5,6-dihydro-1,6-naphthyridine-3-carboxamide]
